Experimental data taken from PubChem BioAssay (NCI).
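Following 48 hours of exposure in 96-well plates, responses at five concentrations were used to interpolate endpoints linearly. GI50 = concentration required for 50% inhibition of growth. TGI denotes the concentration required for complete inhibition of growth.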

Experiments:
Assay in all cases: inhibition of tumour cell growth, NCI panel, 48 h
SNB-75 CNS = tested on: SNB-75 CNS
KM12 colon = tested on: KM12 colon
OVCAR-5 ovarian = tested on: OVCAR-5 ovarian
CCRF-CEM leukemia = tested on: CCRF-CEM leukemia
A549 NSCLC = tested on: A549 NSCLC
TK-10 renal = tested on: TK-10 renal
LOX IMVI melanoma = tested on: LOX IMVI melanoma
RXF 393 renal = tested on: RXF 393 renal
A498 renal = tested on: A498 renal
CAKI-1 renal = tested on: CAKI-1 renal
MDA-N = tested on: MDA-N
MCF7 breast = tested on: MCF7 breast

Row | SMILES | TGI (SNB-75 CNS) [µM] | TGI (KM12 colon) [µM] | TGI (OVCAR-5 ovarian) [µM] | TGI (CCRF-CEM leukemia) [µM] | TGI (A549 NSCLC) [µM] | TGI (TK-10 renal) [µM] | TGI (LOX IMVI melanoma) [µM] | TGI (RXF 393 renal) [µM] | TGI (A498 renal) [µM] | TGI (CAKI-1 renal) [µM] | TGI (MDA-N) [µM] | TGI (MCF7 breast) [µM] | GI50 (SNB-75 CNS) [µM] | GI50 (OVCAR-5 ovarian) [µM] | GI50 (CCRF-CEM leukemia) [µM] | GI50 (TK-10 renal) [µM] | GI50 (A498 renal) [µM] | GI50 (CAKI-1 renal) [µM]
1 | CCOC(=O)CC1=N/C(=N/C(=N)N[N+](=O)[O-])SC1 | > 100 | > 100 | > 100 | > 100 | > 100 | > 100 | > 100 | > 100 | > 100 | > 100 |  |  |  |  |  |  |  | 
2 | CCNC1=C(NC(=O)c2ccc(F)cc2)C(=O)c2ccccc2C1=O | > 100 | > 100 | > 100 | > 100 | > 100 | > 100 |  | 84.4 |  |  | > 100 | > 100 |  |  |  |  |  | 
3 | C=C1CC[C@](C)(O)[C@@]2(C)CC[C@H]3C(=C(C)C)C(=O)C[C@]3(C)C[C@H]12 | > 50 | > 50 | > 50 | 30.9 | > 50 | > 50 | 28.4 | > 50 | > 50 | > 50 |  | > 50 |  |  |  |  |  | 
4 | Nc1ccccc1N | > 100 | > 100 | > 100 | > 100 | > 100 | > 100 | > 100 | > 100 | > 100 | > 100 |  |  |  |  |  |  |  | 
5 | CC1(C)CNC(=O)C2(CCCO2)CNC(C)(C)CNC(=O)C2(CCCO2)CN1 (stereo not drawn) | > 10 | > 10 | > 10 | > 10 | > 10 | > 10 | > 10 |  |  | > 10 |  | > 10 |  |  |  |  |  | 
6 | Cc1ccc(-c2n[nH]c(=O)n2/N=C\c2ccccc2O)cc1 | > 100 | > 100 | > 100 | > 100 | > 100 | > 100 |  | > 100 |  | > 100 | > 100 | > 100 |  |  |  |  |  | 
7 | NC(N)=N/N=C/c1c(-c2ccccc2[N+](=O)[O-])nc2sccn12 | 34.2 | 46.9 | > 100 | 55 | > 100 | 57 | 44.4 | 32.4 | 37.7 | > 100 |  | 38.1 |  |  |  |  |  | 
8 | Cc1cccc2cc(/C=C/C(=O)/C=C/c3ccc(Cl)cc3)c(=O)[nH]c12 | > 100 |  | > 100 | 88.8 |  | > 100 |  |  | > 100 | > 100 |  |  | 16.8 | > 100 | 3.98 | > 100 | > 100 | > 100
9 | COc1cc2c(cc1OS(C)(=O)=O)N=C[C@@H]1CCCN1C2=O | > 100 | > 100 |  | > 100 | > 100 | > 100 | > 100 | > 100 | > 100 | > 100 |  | > 100 |  |  |  |  |  | 
10 | CCCCCCCCCCCCCCCCOCC(COP(=O)(O)OCC1OC(n2cc(CC)c(=O)[nH]c2=O)CC1O)OC(=O)CCCCCCCCCCCCCCC (stereo not drawn) | > 100 | > 100 | > 100 | > 100 | > 100 | > 100 | > 100 | > 100 | > 100 | > 100 |  | > 100 |  |  |  |  |  | 
11 | Cc1nnc2n1N=C(c1cc(F)c(Cl)cc1Cl)/C(=C/c1ccc(-c3ccc([N+](=O)[O-])cc3)o1)S2 |  | > 100 | > 100 | > 100 | > 100 |  | > 100 |  | > 100 | > 100 |  | > 100 |  |  |  |  |  | 
12 | CC(=O)OCC1OC(N2C(=O)[C@@H](Oc3ccccc3)[C@H]2/C=C/c2ccccc2)C(OC(C)=O)C(OC(C)=O)C1OC(C)=O (stereo partly drawn) | 90 |  | > 100 | > 100 | > 100 | > 100 | > 100 | > 100 | > 100 |  |  |  |  |  |  |  |  | 
13 | COc1cc2nc(-c3cccs3)nc(Nc3cccc([N+](=O)[O-])c3)c2cc1OC | 78.8 | 40.6 | 41.4 | > 100 | 53.8 | 37 | 45.7 | 74.1 | > 100 | 36.8 |  | 59.1 |  |  |  |  |  | 
14 | O=C(O)CN1CCSc2ccccc2CN(CC(=O)O)CCSc2ccccc2C1 | > 100 | > 100 | > 100 | > 100 | > 100 | > 100 | > 100 |  | > 100 | > 100 |  |  |  |  |  |  |  | 
15 | CC(C)[Si](OC12CCC(CC1O)CC2CO)(C(C)C)C(C)C (stereo not drawn) | 26.8 | 25.3 | 31.2 | 31.6 | 22.1 | 27.5 |  |  | 32 | 39.3 |  | 24.4 |  |  |  |  |  | 
16 | C=C=C[P+](c1ccccc1)(c1ccccc1)c1ccccc1 | 44.9 | 28.2 |  | 22.3 | > 100 | 78.2 |  |  | > 100 |  |  |  |  |  |  |  |  | 

Row | SMILES | TGI (SNB-75 CNS) [µM] | TGI (KM12 colon) [µM] | TGI (OVCAR-5 ovarian) [µM] | TGI (CCRF-CEM leukemia) [µM] | TGI (A549 NSCLC) [µM] | TGI (TK-10 renal) [µM] | TGI (LOX IMVI melanoma) [µM] | TGI (RXF 393 renal) [µM] | TGI (A498 renal) [µM] | TGI (CAKI-1 renal) [µM] | TGI (MDA-N) [µM] | TGI (MCF7 breast) [µM] | GI50 (SNB-75 CNS) [µM] | GI50 (OVCAR-5 ovarian) [µM] | GI50 (CCRF-CEM leukemia) [µM] | GI50 (TK-10 renal) [µM] | GI50 (A498 renal) [µM] | GI50 (CAKI-1 renal) [µM]
17 | O=C1c2cc(Br)ccc2-c2ccc3c4ccc5c6c(ccc(c7ccc1c2c73)c64)C(=O)c1cc(Br)ccc1-5 |  | > 100 | > 100 | > 100 | > 100 | > 100 | > 100 | > 100 | > 100 | > 100 |  | > 100 |  |  |  |  |  | 
18 | O=C(CNc1ccccc1[N+](=O)[O-])Nn1cnc2ccc(S(=O)(=O)Nc3ccccc3[N+](=O)[O-])cc2c1=O | > 100 | > 100 | > 100 | > 100 | > 100 | > 100 | > 100 |  |  | > 100 | > 100 | > 100 |  |  |  |  |  | 
19 | O=C1c2ccccc2C(=O)N1/N=C1/SC(=Nc2ccccc2)C(=Nc2ccccc2)N1c1ccccc1 | > 54.1 | > 100 | > 100 | > 90.3 | > 100 | > 100 | > 100 | 14.3 | > 63.1 | > 100 |  | > 100 |  |  |  |  |  | 
20 | CN(C)CCNc1ccc(NCC[N+](C)(C)Cc2ccc([N+](=O)[O-])cc2)c2c1C(=O)c1c(O)ccc(O)c1C2=O | > 100 | > 100 |  | > 100 |  |  | > 100 |  | > 100 | > 100 | 69 |  |  |  |  |  |  | 
21 | CC(C)OC(=O)NCCn1cc(-c2ccccc2)nn1 | > 100 | > 100 | > 100 | > 100 | > 100 | > 100 | > 100 |  |  | > 100 |  | > 100 |  |  |  |  |  | 
22 | Brc1ccc(C2=NCSC(c3ccc(Br)cc3)=N2)cc1 | 63.1 | > 100 | > 100 |  | > 100 | 53.8 | 70.9 | 44.3 |  | > 100 | 54.7 | > 100 |  |  |  |  |  | 
23 | CCC(C)N1CN(c2ccccc2)C2(CCN(CC3COc4ccccc4O3)CC2)C1=O (stereo not drawn) | > 100 | 43.9 |  | 64.5 | > 100 | 86.2 | 44.2 | 38.1 |  | 38.4 | 64.1 | 49.6 |  |  |  |  |  | 
24 | O=C1CSCC(=O)Nc2ccccc2N1 |  | > 100 | > 100 | > 100 | > 100 | > 100 | > 100 | > 100 | > 100 | > 100 | > 100 |  |  |  |  |  |  | 
25 | C=C(Br)C(C)(Cl)CCC(Br)C(C)(C)Br (stereo not drawn) | > 100 | > 100 | > 100 | 59.6 | > 100 | > 100 | 50.5 | > 100 |  | > 100 |  |  |  |  |  |  |  | 
26 | COc1cccc2c1C(=O)c1c(O)c3c(c(O)c1C2=O)C[C@@](O)(C(=O)CO)CC3OC1CC(N(C)CCOCC(OC(C)=O)OC(C)=O)C(O)C(C)O1 (stereo partly drawn) | > 0.01 | > 0.01 | > 0.01 | > 0.01 | > 0.01 | > 0.01 | > 0.01 | > 0.01 |  | > 0.01 |  |  |  |  |  |  |  | 
27 | OCC(O)COCn1cc(Cn2ncc3c(SCc4ccccc4)ncnc32)nn1 (stereo not drawn) |  | > 100 | > 100 | > 100 | > 100 | > 100 | > 100 |  | > 100 | > 100 |  | > 100 |  |  |  |  |  | 
28 | O=C(CC(NC(=O)OCc1ccccc1)C(=O)NC1Cc2ccccc2C1=O)OCc1ccccc1 (stereo not drawn) | > 100 | > 100 | > 100 |  | > 100 | > 100 |  | > 100 |  | > 100 | > 100 | > 100 |  |  |  |  |  | 
29 | O=C(c1ccc2ccccc2c1)C1(I)S(=O)(=O)OCCOS1(=O)=O |  | > 100 | > 100 | > 100 | > 100 | > 100 |  |  |  | > 100 | > 100 | > 100 |  |  |  |  |  | 
30 | O=C(O)C(Cc1cc(I)c(O)c(I)c1)C1CCCCC1 (stereo not drawn) | > 100 | > 100 | > 100 | > 100 | > 100 | 88.7 | > 100 | > 100 | 63.7 | > 100 | > 100 |  |  |  |  |  |  | 
31 | Cc1nc2ccc(F)cc2c2c1CCS2 | > 100 | > 100 |  | > 100 | > 100 | > 100 | > 100 | 73.9 | > 100 |  |  | > 100 |  |  |  |  |  | 
32 | CCN(CC)C(=O)CCn1ccc(=O)[nH]c1=O | > 100 | > 100 | > 100 | > 100 | > 100 | > 100 | > 100 | > 100 |  |  |  |  |  |  |  |  |  | 
